Experimental data from ChEMBL document CHEMBL1201862, “PubChem BioAssay data set” (2004).
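Results reflect a 48-hour exposure of cells in 96-well plates to compound at five concentrations. GI50 is the concentration that inhibits growth by half.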 Calls of active or inactive are those of the source. Rule as the data show it: active = GI50 up to about 1.1 µM and inactive = higher. Square brackets hold non-standard residues; d marks the D form. Peptide text beside a SMILES is read from it. Ac5c = NC1(C(=O)O)CCCC1

Tests used:
Experiment in all cases: NCI anticancer screen, dose series, 48 h
A498 = tested on: A498
A549 = tested on: A549
EKVX = tested on: EKVX
HCC 2998 = tested on: HCC 2998
HCT-15 = tested on: HCT-15
KM12 = tested on: KM12
Malme-3M = tested on: Malme-3M
NCI-H226 = tested on: NCI-H226
NCI-H460 = tested on: NCI-H460
NCI/ADR-RES = tested on: NCI/ADR-RES
SF-268 = tested on: SF-268
SF-539 = tested on: SF-539
SK-MEL-28 = tested on: SK-MEL-28
SNB-19 = tested on: SNB-19
SR = tested on: SR
TK-10 = tested on: TK-10
U-251 = tested on: U-251
UACC-257 = tested on: UACC-257
CCRF-CEM = tested on: CCRF-CEM
MOLT-4 = tested on: MOLT-4

| SMILES | GI50 (A498) | GI50 (A549) | GI50 (EKVX) | GI50 (HCC 2998) | GI50 (HCT-15) | GI50 (KM12) | GI50 (Malme-3M) | GI50 (NCI-H226) | GI50 (NCI-H460) | GI50 (NCI/ADR-RES) | GI50 (SF-268) | GI50 (SF-539) | GI50 (SK-MEL-28) | GI50 (SNB-19) | GI50 (SR) | GI50 (TK-10) | GI50 (U-251) | GI50 (UACC-257) | GI50 (CCRF-CEM) | GI50 (MOLT-4) |
| --- | --- | --- | --- | --- | --- | --- | --- | --- | --- | --- | --- | --- | --- | --- | --- | --- | --- | --- | --- | --- |
| C=CCSc1nc2ccccc2c(=O)n1Cc1ccco1 | > 100 µM (inactive) | 78.9 µM (inactive) | > 100 µM (inactive) | > 100 µM (inactive) | 64.1 µM | > 100 µM (inactive) | > 100 µM (inactive) | > 100 µM (inactive) | 73.5 µM (inactive) | 39.4 µM (inactive) | > 100 µM (inactive) | > 100 µM (inactive) | > 100 µM (inactive) | > 100 µM (inactive) | 47 µM (inactive) | > 100 µM (inactive) | > 100 µM (inactive) | > 100 µM (inactive) | – | – |
| O=C1NC(Cc2ccc(O)cc2)C(=O)NC1Cc1ccc(O)cc1 (stereo not drawn) | > 100 µM (inactive) | > 100 µM (inactive) | > 100 µM (inactive) | – | > 100 µM | > 100 µM (inactive) | > 100 µM (inactive) | > 100 µM (inactive) | > 100 µM (inactive) | > 100 µM (inactive) | > 100 µM (inactive) | > 100 µM (inactive) | > 100 µM (inactive) | > 100 µM (inactive) | > 100 µM (inactive) | > 100 µM (inactive) | > 100 µM (inactive) | > 100 µM (inactive) | > 100 µM (inactive) | > 100 µM (inactive) |
| Cc1cc(C)c2c(=O)n(CN3CC4Nc5ccccc5C4C3)sc2n1 (stereo not drawn) | 37.9 µM (inactive) | 38.5 µM (inactive) | 26.9 µM (inactive) | – | 21 µM | > 100 µM (inactive) | 11.7 µM (inactive) | 20.8 µM (inactive) | 20.9 µM (inactive) | 35.6 µM (inactive) | 14.8 µM (inactive) | 19.9 µM (inactive) | 22.1 µM (inactive) | 65.9 µM (inactive) | 23.6 µM (inactive) | 19.4 µM (inactive) | 31.3 µM (inactive) | 15.5 µM (inactive) | 22 µM (inactive) | 29.6 µM (inactive) |
| NCC(=O)NC1(C(=O)O)CCCC1 (H-Gly-[Ac5c]-OH) | > 100 µM (inactive) | > 100 µM (inactive) | > 100 µM (inactive) | > 100 µM (inactive) | > 100 µM | > 100 µM (inactive) | > 100 µM (inactive) | – | > 100 µM (inactive) | > 100 µM (inactive) | > 100 µM (inactive) | > 100 µM (inactive) | > 100 µM (inactive) | > 100 µM (inactive) | > 100 µM (inactive) | > 100 µM (inactive) | > 100 µM (inactive) | > 100 µM (inactive) | – | > 100 µM (inactive) |
| C(=N\c1ccc(-c2nc3ccccc3[nH]2)cc1)/c1ccc[nH]1 | 69.5 µM (inactive) | > 100 µM (inactive) | > 100 µM (inactive) | 29.5 µM (inactive) | 76.6 µM | 44.6 µM (inactive) | > 100 µM (inactive) | – | – | > 100 µM (inactive) | 30.3 µM (inactive) | > 100 µM (inactive) | > 100 µM (inactive) | – | 33.1 µM (inactive) | > 100 µM (inactive) | – | > 100 µM (inactive) | 11.4 µM (inactive) | 28.8 µM (inactive) |
| O=C(Cn1c(=O)oc2ccc(C(=O)c3ccc(F)cc3)cc21)c1ccc([N+](=O)[O-])cc1 | 25.5 µM (inactive) | 37.1 µM (inactive) | – | 15.9 µM (inactive) | 20.9 µM | 22.8 µM (inactive) | 31.8 µM (inactive) | 27.3 µM (inactive) | 32.8 µM (inactive) | 33.8 µM (inactive) | 45 µM (inactive) | 41.1 µM (inactive) | 45.3 µM (inactive) | 47.1 µM (inactive) | 12.6 µM (inactive) | 36.6 µM (inactive) | 34.3 µM (inactive) | 60.3 µM (inactive) | 19.1 µM (inactive) | 18.2 µM (inactive) |
| Cc1cn(CC2=NCC(C)(C)N2)c(=O)[nH]c1=O | > 100 µM (inactive) | > 100 µM (inactive) | > 100 µM (inactive) | > 100 µM (inactive) | > 100 µM | – | > 100 µM (inactive) | > 100 µM (inactive) | > 100 µM (inactive) | > 100 µM (inactive) | > 100 µM (inactive) | – | > 100 µM (inactive) | > 100 µM (inactive) | > 100 µM (inactive) | > 100 µM (inactive) | > 100 µM (inactive) | > 100 µM (inactive) | < 0.01 µM (active) | > 100 µM (inactive) |
| C(=N\c1ccc(-c2nc3ccccc3[nH]2)cc1)/c1cccs1 | > 100 µM (inactive) | > 100 µM (inactive) | > 100 µM (inactive) | – | 84.9 µM | 58.1 µM (inactive) | > 100 µM (inactive) | > 100 µM (inactive) | > 100 µM (inactive) | 43 µM (inactive) | > 100 µM (inactive) | > 100 µM (inactive) | > 100 µM (inactive) | > 100 µM (inactive) | 45.3 µM (inactive) | > 100 µM (inactive) | 89.7 µM (inactive) | > 100 µM (inactive) | 22 µM (inactive) | 29.9 µM (inactive) |
| COc1cc(/C=C2/SC(c3ccccc3)N(c3ccc(NC(C)=O)cc3)C2=O)cc(OC)c1OC (stereo not drawn) | > 100 µM (inactive) | > 100 µM (inactive) | > 100 µM (inactive) | > 100 µM (inactive) | > 100 µM | 91.4 µM (inactive) | 54.1 µM (inactive) | > 100 µM (inactive) | > 100 µM (inactive) | > 100 µM (inactive) | 75.2 µM (inactive) | > 100 µM (inactive) | > 100 µM (inactive) | > 100 µM (inactive) | 30.8 µM (inactive) | > 100 µM (inactive) | > 100 µM (inactive) | > 100 µM (inactive) | – | 31.3 µM (inactive) |
| CC1=NN(C(=O)c2ccccc2O)C(=O)/C1=C/c1ccc([N+](=O)[O-])cc1 | 0.0419 µM (active) | 0.0931 µM (active) | 1.2 µM (inactive) | 1.85 µM (inactive) | 0.361 µM | 0.161 µM (active) | 0.247 µM (active) | 0.459 µM (active) | 0.114 µM (active) | 0.664 µM (active) | 0.0855 µM (active) | 0.0951 µM (active) | 31.6 µM (inactive) | 0.0782 µM (active) | 0.473 µM (active) | > 24.2 µM (inactive) | 0.0991 µM (active) | 1.91 µM (inactive) | 0.407 µM (active) | – |
| Cc1ccc2occ/c(=N\Nc3ccccc3)c2c1 | 76.6 µM (inactive) | 57 µM (inactive) | 18.6 µM (inactive) | > 100 µM (inactive) | 39.9 µM | 12.7 µM (inactive) | 29.5 µM (inactive) | 29.9 µM (inactive) | 56.9 µM (inactive) | 39 µM (inactive) | > 100 µM (inactive) | > 100 µM (inactive) | 62.2 µM (inactive) | > 100 µM (inactive) | 37.8 µM (inactive) | > 100 µM (inactive) | 66.1 µM (inactive) | > 100 µM (inactive) | > 100 µM (inactive) | – |
| COc1cc2c(c(OC)c1)/C(=C/Sc1ccccc1)C(=O)N(C(C)(C)C)C2 | 32.4 µM (inactive) | – | 29.6 µM (inactive) | 37.8 µM (inactive) | 30.3 µM | 24.3 µM (inactive) | – | 51.6 µM (inactive) | – | 11.7 µM (inactive) | 14.1 µM (inactive) | 44.7 µM (inactive) | 38.9 µM (inactive) | – | 19.8 µM (inactive) | 54.6 µM (inactive) | 29.8 µM (inactive) | 30.6 µM (inactive) | 29.2 µM (inactive) | 21.3 µM (inactive) |
| COc1ccc(C23OCC(Cc4cc(OC)c(OC)cc42)C3CO)cc1OC (stereo not drawn) | > 100 µM (inactive) | > 100 µM (inactive) | > 100 µM (inactive) | > 100 µM (inactive) | > 100 µM | > 100 µM (inactive) | > 100 µM (inactive) | > 100 µM (inactive) | > 100 µM (inactive) | > 100 µM (inactive) | – | > 100 µM (inactive) | > 100 µM (inactive) | > 100 µM (inactive) | 29.8 µM (inactive) | > 100 µM (inactive) | > 100 µM (inactive) | – | – | > 100 µM (inactive) |
| CCOC(=O)Cc1cc(=O)oc2cc(O)ccc12 | > 100 µM (inactive) | > 100 µM (inactive) | > 100 µM (inactive) | – | > 100 µM | > 100 µM (inactive) | > 100 µM (inactive) | > 100 µM (inactive) | > 100 µM (inactive) | > 100 µM (inactive) | > 100 µM (inactive) | > 100 µM (inactive) | > 100 µM (inactive) | > 100 µM (inactive) | > 100 µM (inactive) | > 100 µM (inactive) | > 100 µM (inactive) | > 100 µM (inactive) | > 100 µM (inactive) | > 100 µM (inactive) |
| Oc1nc2nnc(COc3ccc(Cl)cc3Cl)n2nc1Cc1ccccc1 | 31.3 µM (inactive) | 94.2 µM (inactive) | > 100 µM (inactive) | – | > 100 µM | > 100 µM (inactive) | > 100 µM (inactive) | 25.1 µM (inactive) | 84.5 µM (inactive) | 43.1 µM (inactive) | 63.4 µM (inactive) | 20.1 µM (inactive) | > 100 µM (inactive) | 31.6 µM (inactive) | 36.7 µM (inactive) | 34.6 µM (inactive) | 23.8 µM (inactive) | > 100 µM (inactive) | 33 µM (inactive) | > 100 µM (inactive) |
| N/C(=N/O)c1cn(C2OC(CO)C(O)C2O)c2ncnc(NO)c12 (stereo not drawn) | 0.425 µM (active) | 0.126 µM (active) | 0.422 µM (active) | 0.147 µM (active) | 0.184 µM | – | 0.0373 µM (active) | 0.34 µM (active) | 0.112 µM (active) | 0.203 µM (active) | 0.164 µM (active) | 0.117 µM (active) | 0.476 µM (active) | 0.514 µM (active) | 0.0356 µM (active) | 0.0865 µM (active) | 0.226 µM (active) | 0.224 µM (active) | 0.0165 µM (active) | 0.0871 µM (active) |
